Results published in PubChem BioAssay AID2060505 (Molecular Pharmacology Branch, DTP, NCI, 2025).

System: 633275-114-R-J1-PDC complex spheroids, viability
Assay: Anticancer human tumor 633275-114-R-J1-PDC patient-derived endometrial adenocarcinoma cell line growth inhibition [GQUAD]
Details: for IC50: curve of first compound; for viability, T/C: stronger effect = lower value
Summary of the method: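 Tumor cells were grown as complex spheroids with HUVEC endothelial cells and mesenchymal stem cells as stroma. G-quadruplex stabilizers were combined with targeted agents over half-log dilutions from near the clinical Cmax, or from 10 microM.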

[1] = second compound 0.0316 µM, first compound 0.0316 µM
[2] = second compound 0.0316 µM, first compound 0.316 µM
[3] = second compound 0.1 µM, first compound 0.0316 µM
[4] = second compound 0.1 µM, first compound 0.316 µM
[5] = second compound 0.316 µM, first compound 0.0316 µM
[6] = second compound 0.316 µM, first compound 0.316 µM
[7] = second compound 1 µM, first compound 0.0316 µM
[8] = second compound 1 µM, first compound 0.316 µM
[9] = second compound 3.16 µM, first compound 0.0316 µM
[10] = second compound 3.16 µM, first compound 0.316 µM
[11] = second compound 10 µM, first compound 0.0316 µM
[12] = second compound 10 µM, first compound 0.316 µM
[13] = second compound 0.0316 µM, first compound 0.1 µM
[14] = second compound 0.0316 µM, first compound 1 µM
[15] = second compound 0.0316 µM, first compound 3.16 µM
[16] = second compound 0.0316 µM, first compound 10 µM
[17] = second compound 0.1 µM, first compound 0.1 µM
[18] = second compound 0.1 µM, first compound 1 µM
[19] = second compound 0.1 µM, first compound 3.16 µM
[20] = second compound 0.1 µM, first compound 10 µM
[21] = second compound 0.316 µM, first compound 0.1 µM
[22] = second compound 0.316 µM, first compound 1 µM
[23] = second compound 0.316 µM, first compound 3.16 µM
[24] = second compound 0.316 µM, first compound 10 µM
[25] = second compound 1 µM, first compound 0.1 µM
[26] = second compound 1 µM, first compound 1 µM
[27] = second compound 1 µM, first compound 3.16 µM
[28] = second compound 1 µM, first compound 10 µM
[29] = second compound 3.16 µM, first compound 0.1 µM
[30] = second compound 3.16 µM, first compound 1 µM
[31] = second compound 3.16 µM, first compound 3.16 µM
[32] = second compound 3.16 µM, first compound 10 µM
[33] = second compound 10 µM, first compound 0.1 µM
[34] = second compound 10 µM, first compound 1 µM
[35] = second compound 10 µM, first compound 3.16 µM
[36] = second compound 10 µM, first compound 10 µM
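Note: spheroids exposed to the agents for seven days.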
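Throughout, for viability, T/C: percent of DMSO vehicle control viability which is 100%.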

With Cn1ncnc1[C@H]1c2n[nH]c(=O)c3cc(F)cc(c23)N[C@@H]1c1ccc(F)cc1 + Cc1cnc(CNC(=O)c2c(=O)c3ccc(N4CCCN(C)CC4)nc3n3c2sc2ccccc23)cn1 the IC50 (second compound 0.0316 µM) was 0.114 µM, the IC50 (second compound 0.1 µM) was less than 0.000999 µM and the IC50 (second compound 0.316 µM) was less than 0.000999 µM. It also gave an IC50 (second compound 1 µM) of less than 0.000999 µM, an IC50 (second compound 3.16 µM) of less than 0.000999 µM and an IC50 (second compound 10 µM) of less than 0.000999 µM. For the same compound, the viability, T/C (second compound 0.0316 µM, first compound 0.000999 µM) was 64%, the viability, T/C (second compound 0.0316 µM, first compound 0.00316 µM) was 63.3% and the viability, T/C (second compound 0.0316 µM, first compound 0.00999 µM) was 63.2%. The viability, T/C [1] was 58.9%, the viability, T/C (second compound 0.0316 µM, first compound 0.0999 µM) was 46.5% and the viability, T/C [2] was 44.3%. For the same compound, the viability, T/C (second compound 0.1 µM, first compound 0.000999 µM) was 47.9%, the viability, T/C (second compound 0.1 µM, first compound 0.00316 µM) was 51.3% and the viability, T/C (second compound 0.1 µM, first compound 0.00999 µM) was 50.2%. The viability, T/C [3] was 42.2%, the viability, T/C (second compound 0.1 µM, first compound 0.0999 µM) was 39.3% and the viability, T/C [4] was 38.2%. It also gave a viability, T/C (second compound 0.316 µM, first compound 0.000999 µM) of 41.9%, a viability, T/C (second compound 0.316 µM, first compound 0.00316 µM) of 43.7% and a viability, T/C (second compound 0.316 µM, first compound 0.00999 µM) of 43.2%. The viability, T/C [5] was 37.7%, the viability, T/C (second compound 0.316 µM, first compound 0.0999 µM) was 37.6% and the viability, T/C [6] was 34.8%. The viability, T/C (second compound 1 µM, first compound 0.000999 µM) was 39.1%, the viability, T/C (second compound 1 µM, first compound 0.00316 µM) was 37.4% and the viability, T/C (second compound 1 µM, first compound 0.00999 µM) was 37.9%. The viability, T/C [7] was 35%, the viability, T/C (second compound 1 µM, first compound 0.0999 µM) was 34% and the viability, T/C [8] was 34%. The viability, T/C (second compound 3.16 µM, first compound 0.000999 µM) was 31.8%, the viability, T/C (second compound 3.16 µM, first compound 0.00316 µM) was 38.6% and the viability, T/C (second compound 3.16 µM, first compound 0.00999 µM) was 36.6%. The viability, T/C [9] was 36.7%, the viability, T/C (second compound 3.16 µM, first compound 0.0999 µM) was 29.4% and the viability, T/C [10] was 29.8%. For the same compound, the viability, T/C (second compound 10 µM, first compound 0.000999 µM) was 32.8%, the viability, T/C (second compound 10 µM, first compound 0.00316 µM) was 31% and the viability, T/C (second compound 10 µM, first compound 0.00999 µM) was 28.4%. It also gave a viability, T/C [11] of 30.9%, a viability, T/C (second compound 10 µM, first compound 0.0999 µM) of 28.9% and a viability, T/C [12] of 26.6%.
With CC1COCCN1c1cc(-c2ccnn2C)c2ccnc(-c3ccn[nH]3)c2n1 (stereo unspecified) + Cc1cnc(CNC(=O)c2c(=O)c3ccc(N4CCCN(C)CC4)nc3n3c2sc2ccccc23)cn1 the IC50 (second compound 0.0316 µM) was less than 0.0316 µM, the IC50 (second compound 0.1 µM) was less than 0.0316 µM and the IC50 (second compound 0.316 µM) was less than 0.0316 µM. The IC50 (second compound 1 µM) was less than 0.0316 µM, the IC50 (second compound 3.16 µM) was less than 0.0316 µM and the IC50 (second compound 10 µM) was less than 0.0316 µM. It also gave a viability, T/C [1] of 43.9%, a viability, T/C [13] of 32.6% and a viability, T/C [2] of 29.8%. For the same compound, the viability, T/C [14] was 25.8%, the viability, T/C [15] was 18.7% and the viability, T/C [16] was 14.7%. For the same compound, the viability, T/C [3] was 42.2%, the viability, T/C [17] was 37.7% and the viability, T/C [4] was 30.2%. The viability, T/C [18] was 22.6%, the viability, T/C [19] was 17.3% and the viability, T/C [20] was 14.9%. The viability, T/C [5] was 38.8%, the viability, T/C [21] was 38.2% and the viability, T/C [6] was 30.6%. The viability, T/C [22] was 24%, the viability, T/C [23] was 17.5% and the viability, T/C [24] was 10.9%. For the same compound, the viability, T/C [7] was 36.9%, the viability, T/C [25] was 36.6% and the viability, T/C [8] was 29.1%. For the same compound, the viability, T/C [26] was 22.2%, the viability, T/C [27] was 15.4% and the viability, T/C [28] was 11.1%. The viability, T/C [9] was 33.6%, the viability, T/C [29] was 29.1% and the viability, T/C [10] was 25%. For the same compound, the viability, T/C [30] was 20.8%, the viability, T/C [31] was 13.3% and the viability, T/C [32] was 9.84%. For the same compound, the viability, T/C [11] was 28.5%, the viability, T/C [33] was 24.7% and the viability, T/C [12] was 23.4%. It also gave a viability, T/C [34] of 18.4%, a viability, T/C [35] of 14.4% and a viability, T/C [36] of 8.93%.
C=CCn1c(=O)c2cnc(Nc3ccc(N4CCN(C)CC4)cc3)nc2n1-c1cccc(C(C)(C)O)n1 + Cc1[nH]c2ccc(F)cc2c1-c1nc2c3cccnc3c3ncccc3c2[nH]1 gave an IC50 (second compound 0.0316 µM) of 0.645 µM, an IC50 (second compound 0.1 µM) of 0.72 µM and an IC50 (second compound 0.316 µM) of 0.623 µM. For the same compound, the IC50 (second compound 1 µM) was 0.577 µM, the IC50 (second compound 3.16 µM) was 0.361 µM and the IC50 (second compound 10 µM) was 0.165 µM. For the same compound, the viability, T/C [1] was 105%, the viability, T/C [13] was 100% and the viability, T/C [2] was 73.3%. It also gave a viability, T/C [14] of 35.1%, a viability, T/C [15] of 22.2% and a viability, T/C [16] of 16.2%. The viability, T/C [3] was 103%, the viability, T/C [17] was 97.9% and the viability, T/C [4] was 73.9%. It also gave a viability, T/C [18] of 40.4%, a viability, T/C [19] of 22.6% and a viability, T/C [20] of 17.4%. For the same compound, the viability, T/C [5] was 101%, the viability, T/C [21] was 93.9% and the viability, T/C [6] was 67.9%. It also gave a viability, T/C [22] of 37.2%, a viability, T/C [23] of 21.8% and a viability, T/C [24] of 16%. It also gave a viability, T/C [7] of 87.1%, a viability, T/C [25] of 97.8% and a viability, T/C [8] of 67.3%. It also gave a viability, T/C [26] of 33.3%, a viability, T/C [27] of 19.3% and a viability, T/C [28] of 15.6%. For the same compound, the viability, T/C [9] was 69.3%, the viability, T/C [29] was 69.4% and the viability, T/C [10] was 51.5%. For the same compound, the viability, T/C [30] was 29.8%, the viability, T/C [31] was 18.6% and the viability, T/C [32] was 14.8%. It also gave a viability, T/C [11] of 58.2%, a viability, T/C [33] of 55% and a viability, T/C [12] of 43.4%. For the same compound, the viability, T/C [34] was 26.2%, the viability, T/C [35] was 17.9% and the viability, T/C [36] was 16.6%.
